According to patent publication US20250275929A1, “INTRAOPERATIVE TOPICALLY-APPLIED NON-IMPLANTABLE RAPID RELEASE PATCH” (PRIVO TECHNOLOGIES, INC., priority 2017, published 2025):

Assay: HPLC chromatograms of agent from patch and from gamma sterilized patch
Assay type: physicochemical
Text: FIGS. 9A, 9B, and 9C are graphs showing that agent(s) included within a patch, according to embodiments of the present invention, are not modified when incorporated into the patch or when the patch is sterilized. FIG. 9A is a graph showing a high-performance liquid chromatography (H PLC) chromatogram of a cisplatin standard. FIG. 9B is a graph showing an HPLC chromatogram of a patch, which illustrates that the cisplatin was not modified.
The patch is sterilized prior to application to a surgical cavity, for example after the patch is manufactured and before packaging. In some embodiments, gamma sterilization is employed to sterilize the patch. FIGS. 9A-9C show HPLC chromatograms at various stages of product synthesis. The HPLC apparatus was an Agilent 1100 Series HPLC using a water/methanol/sodium lauryl sulfate solvent mixture adjusted to pH 2.5 with trifluoromethanesulfonic acid. FIG. 9A is an HPLC chromatogram of a cisplatin standard. FIG. 9B is an HPLC chromatogram of a cisplatin sample taken from a patch that was dissolved in a solution, which illustrates that the cisplatin was not modified while in the patch. […] Similar experiments were conducted using oxaliplatin and 5-fluorouracil. This experiment proves that the patches are able to be manufactured and sterilized while maintaining the integrity of the agent(s) included within.

## N.N.[Cl][Pt][Cl] [cisplatin]
Gamma ray sterilization for 25 minutes
  integrity of agent after gamma ray sterilization of patch (HPLC): not modified
Sample taken from a patch dissolved in a solution
  integrity of agent while in the patch (HPLC): not modified
